According to patent US7960427B2, “5-hydroxyindole-3-carboxylate derivatives and uses thereof” (priority 2004, dated 2011):
In brackets after ≈: the same amount, converted by molar mass. Where a name gives a salt, the structure may show the parent alone.

Legend:
HBeAg = assay: In vitro anti-HBV activity: HBeAg production in HBV-infected 2.2.15 cells (RIA); type: cell-based, Hepatitis B virus (HBV); conditions: for IC50: Hepatitis B virus, read-out: HBeAg IC50; for HBeAg SI: selectivity index
Protocol: (§1) All compounds were evaluated for their anti-HBV activities, namely the ability to inhibit the replication of HBV DNA and the production of HBsAg and HBeAg in HBV-infected 2.2.15 cells.
(§2) The samples were dissolved in DMSO for appropriate concentrations, and then each was diluted 3-fold with culture medium. The 2.2.15 cells were planted into 96-well culture plates. […] The culture supernatants and 2.2.15 cells were collected respectively on the 8th plant day. The secretion concentrations of HBsAg and HBeAg in the culture supernatants were measured by RIA on SPRIA Kit for Detection of HBsAg and HBeAg (Beijing North Institute of Biological Technology), and the replication of HBV DNA was measured by dot hybridization with a^32PdCTP (FuRui Biological Technology Ltd., China).

HBV DNA = assay: In vitro anti-HBV activity: replication of HBV DNA in 2.2.15 cells (dot hybridization); type: cell-based, Hepatitis B virus (HBV); conditions: for IC50: Hepatitis B virus, read-out: DNA replication IC50; for DNA replication SI: selectivity index
Outline: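 HBV-producing 2.2.15 cells exposed to 3-fold serial dilutions of compound (DMSO stocks diluted in medium); cells and supernatants harvested on day 8. Intracellular HBV DNA replication quantified by dot hybridization with α-32P-dCTP probe; HBsAg/HBeAg in supernatant by RIA.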

2.2.15 cells = assay: Cytotoxicity (TC50) in 2.2.15 cells; type: cell-based
[1] = system: Madin-Darby canine kidney (MDCK) cells
[2] = system: influenza A virus, strain A/jifang/90-15; assay: microbe, parasite or virus in culture; type: cell-based; conditions: for IC50: Influenza A virus, Influenza strain A/jifang/90-15, MDCK cells, CPE, Reed-Muench, read-out: IC50; for SI: Influenza strain A/jifang/90-15
HBsAg = assay: In vitro anti-HBV activity: HBsAg production in HBV-infected 2.2.15 cells (RIA); type: cell-based, Hepatitis B virus (HBV); conditions: for IC50: Hepatitis B virus, read-out: HBsAg IC50; for HBsAg SI: selectivity index
Protocol: as §1, §2

Q: Which results are given for CCOC(=O)c1c(CS(=O)(=O)c2cccc(OC)c2)n(C)c2ccc(O)c(CN3CCCC3)c12 [Example 72, Ethyl 5-hydroxy-1-methyl-4-(1-pyrrolidinylmethyl)-2-[(3-methoxyphenyl)sulfonylmethyl]-1H-indole-3-carboxylate hydrochloride]?
A: IC50 (HBeAg): 15.4 µg/mL; HBeAg SI (HBeAg): 6.9; IC50 (HBV DNA): 15.4 µg/mL; DNA replication SI (HBV DNA): 6.9; TC50 (2.2.15 cells): 106.83 µg/mL

Q: With CCOC(=O)c1c(CSCc2ccccc2)n(C2CC2)c2cc(Br)c(O)c(Cn3ccnc3)c12 [Example 91, Ethyl 6-bromo-1-cyclopropyl-5-hydroxy-4-[(1-imidazolyl)methyl]-2-(benzylthiomethyl)-1H-indole-3-carboxylate] as the molecule, how does the TC50 [1] read?
A: Its TC50 is 293.37 µg/mL (≈ 543 µM).

Q: What about the IC50 [2] of the same molecule?
A: The IC50 was 15.6 µg/mL (≈ 28.9 µM).

Q: What about the SI [2] of the same molecule?
A: The SI was 18.77.

Q: Which results are given for CCOC(=O)c1c(CSCc2ccc(F)cc2)n(C)c2cc(Br)c(O)c(Cn3ccnc3)c12 [Example 92, Ethyl 6-bromo-5-hydroxy-4-[(1-imidazolyl)methyl]-1-methyl-2-[(4-fluorobenzyl)thiomethyl]-1H-indole-3-carboxylate]?
A: TC50 [1]: 18.34 µg/mL (≈ 34.4 µM); IC50 [2]: 7.81 µg/mL (≈ 14.7 µM); SI [2]: 2.35

Q: Which results are given for CCOC(=O)c1c(CSCc2ccc(F)cc2)n(C)c2cc(Br)c(O)c(Cn3ccnc3C)c12 [Example 100, Ethyl 6-bromo-5-hydroxy-1-methyl-4-[(2-methyl-1-imidazolyl)methyl]-2-[(4-fluorobenzyl)thiomethyl]-1H-indole-3-carboxylate]?
A: TC50 [1]: 49.61 µg/mL (≈ 90.8 µM); IC50 [2]: 22.1 µg/mL (≈ 40.4 µM); SI [2]: 2.24

Q: How did the TC50 [1] turn out when CCOC(=O)c1c(CSCc2ccccc2)n(C)c2cc(Br)c(O)c(CNC(=N)N)c12 [Example 104, Ethyl 6-bromo-4-(guanidinylmethyl)-5-hydroxy-1-methyl-2-(benzylthiomethyl)-1H-indole-3-carboxylate] was run?
A: The TC50 was 148.65 µg/mL (≈ 294 µM).

Q: What about the IC50 [2] of the same molecule?
A: Its IC50 is 13.3 µg/mL (≈ 26.4 µM).

Q: What about the SI [2] of the same molecule?
A: Its SI is 11.16.

Q: For CCOC(=O)c1c(C[S+]([O-])Cc2ccccc2)n(C2CC2)c2cc(Br)c(O)c(Cn3ccnc3)c12 (stereo not drawn) [Example 126, Ethyl 6-bromo-1-cyclopropyl-5-hydroxy-4-[(1-imidazolyl)methyl]-2-(benzylsulfinylmethyl)-1H-indole-3-carboxylate], which TC50 [1] is on record?
A: The TC50 was 44.19 µg/mL (≈ 79.4 µM).

Q: And the IC50 (HBV DNA)?
A: Its IC50 is 6.36 µg/mL (≈ 11.4 µM).

Q: What about the “DNA replication SI” value (HBV DNA) of the same molecule?
A: Its value is 5.60.

Q: What about the IC50 [2] of the same molecule?
A: The IC50 was 11.1 µg/mL (≈ 19.9 µM).

Q: What about the SI [2] of the same molecule?
A: Its SI is 4.0.

Q: What about the TC50 (2.2.15 cells) of the same molecule?
A: Its TC50 is 35.61 µg/mL (≈ 64 µM).

Q: Which IC50 (HBeAg) does the source give for CCOC(=O)c1c(C[S+]([O-])Cc2cscn2)n(C2CC2)c2cc(Br)c(O)c(Cn3ccnc3)c12 (stereo not drawn) [Example 128, Ethyl 6-bromo-1-cyclopropyl-5-hydroxy-4-[(1-imidazolyl)methyl]-2-[(4-thiazolylmethyl)sulfinylmethyl]-1H-indole-3-carboxylate dihydrochloride] here?
A: The IC50 was 8.06 µg/mL.

Q: What about the “HBeAg SI” value (HBeAg) of the same molecule?
A: The value was 6.63.

Q: What about the IC50 (HBsAg) of the same molecule?
A: Its IC50 is 7.23 µg/mL.

Q: What about the “HBsAg SI” value (HBsAg) of the same molecule?
A: The value was 7.39.

Q: What about the TC50 (2.2.15 cells) of the same molecule?
A: Its TC50 is 53.42 µg/mL.

Q: How did the TC50 [1] turn out when CCOC(=O)c1c(CSCc2ccccc2)n(C)c2cc(Br)c(O)c(Cn3ccnc3)c12 [Example 176, Ethyl 6-bromo-5-hydroxy-4-[(1-imidazolyl)methyl]-1-methyl-2-(benzylthiomethyl)-1H-indole-3-carboxylate] was run?
A: Its TC50 is 125 µg/mL (≈ 243 µM).

Q: What about the IC50 [2] of the same molecule?
A: The IC50 was 15.6 µg/mL (≈ 30.4 µM).

Q: And the SI [2]?
A: Its SI is 8.0.

Q: How did the TC50 [1] turn out when CCOC(=O)c1c(CS(=O)(=O)Cc2ccccc2)n(C2CC2)c2cc(Br)c(O)c(Cn3ccnc3C)c12 [Example 178, Ethyl 6-bromo-1-cyclopropyl-5-hydroxy-4-[(2-methyl-1-imidazolyl)methyl]-2-(benzylsulfonylmethyl)-1H-indole-3-carboxylate] was run?
A: The TC50 was 78.75 µg/mL (≈ 134 µM).

Q: What about the IC50 [2] of the same molecule?
A: The IC50 was 7.81 µg/mL (≈ 13.3 µM).

Q: What about the SI [2] of the same molecule?
A: Its SI is 10.08.

Q: What does the source list for CCOC(=O)c1c(CS(=O)(=O)C23CC4CC(CC(C4)C2)C3)n(C)c2cc(Br)c(O)c(Cn3ccnc3C)c12 [Example 179, Ethyl 6-bromo-5-hydroxy-1-methyl-4-[(2-methyl-1-imidazolyl)methyl]-2-[(1-adamantanyl)sulfonylmethyl]-1H-indole-3-carboxylate]?
A: IC50 (HBeAg): 1.91 µg/mL (≈ 3.16 µM); HBeAg SI (HBeAg): 5.60; IC50 (HBsAg): 1.88 µg/mL (≈ 3.11 µM); HBsAg SI (HBsAg): 5.69; TC50 (2.2.15 cells): 10.69 µg/mL (≈ 17.7 µM)

Q: Which results are given for CCOC(=O)c1c(C[S+]([O-])Cc2cscn2)n(C2CC2)c2cc(Br)c(O)c(Cn3ccnc3C)c12 (stereo not drawn) [Example 182, Ethyl 6-bromo-1-cyclopropyl-5-hydroxy-4-[(2-methyl-1-imidazolyl)methyl]-2-[(4-thiazolylmethyl)sulfinylmethyl]-1H-indole-3-carboxylate dihydrochloride]?
A: IC50 (HBeAg): 7.69 µg/mL; HBeAg SI (HBeAg): 8.34; IC50 (HBsAg): 4.66 µg/mL; HBsAg SI (HBsAg): 13.77; TC50 (2.2.15 cells): 64.15 µg/mL

Q: CCOC(=O)c1c(CSCc2ccccc2F)n(C2CC2)c2cc(Br)c(O)c(Cn3cncn3)c12 [Example 186, Ethyl 6-bromo-1-cyclopropyl-5-hydroxy-4-[(1H-1,2,4-triazol-1-yl)methyl]-2-[(2-fluorobenzyl)thiomethyl]-1H-indole-3-carboxylate] was tested. Which TC50 [1] did it give?
A: The TC50 was 62.5 µg/mL (≈ 112 µM).

Q: What about the IC50 [2] of the same molecule?
A: Its IC50 is 9.17 µg/mL (≈ 16.4 µM).

Q: And the SI [2]?
A: The SI was 6.82.

Q: For CCOC(=O)c1c(CSCc2ccc(F)cc2)n(C)c2cc(Br)c(O)c(Cn3cncn3)c12 [Example 187, Ethyl 6-bromo-5-hydroxy-1-methyl-4-[(1H-1,2,4-triazol-1-yl)methyl]-2-[(4-fluorobenzyl)thiomethyl]-1H-indole-3-carboxylate], which TC50 [1] is on record?
A: Its TC50 is 44.19 µg/mL (≈ 82.8 µM).

Q: What about the IC50 [2] of the same molecule?
A: The IC50 was 26.6 µg/mL (≈ 49.9 µM).

Q: What about the SI [2] of the same molecule?
A: The SI was 1.66.

Q: For CCOC(=O)c1c(CSCc2ccccc2)n(C2CC2)c2cc(Br)c(O)c(CNC(=N)N)c12 [Example 188, Ethyl 6-bromo-1-cyclopropyl-4-(guanidinylmethyl)-5-hydroxy-2-(benzylthiomethyl)-1H-indole-3-carboxylate], which TC50 [1] is on record?
A: The TC50 was 39.37 µg/mL (≈ 74.1 µM).

Q: What about the IC50 [2] of the same molecule?
A: Its IC50 is 9.85 µg/mL (≈ 18.5 µM).

Q: And the SI [2]?
A: Its SI is 4.0.

Q: Which results are given for CCOC(=O)c1c(CSc2nc3ccccc3[nH]2)n(C)c2cc(Br)c(O)c(CNC(=N)N)c12 [Example 189, Ethyl 6-bromo-4-(guanidinylmethyl)-5-hydroxy-1-methyl-2-[(benzo[d]imidazol-2-yl)thiomethyl]-1H-indole-3-NL carboxylate]?
A: IC50 (HBeAg): 28 µg/mL (≈ 52.6 µM); HBeAg SI (HBeAg): 9.25; IC50 (HBV DNA): 12.4 µg/mL (≈ 23.3 µM); DNA replication SI (HBV DNA): 20.91; IC50 (HBsAg): 12.5 µg/mL (≈ 23.6 µM); HBsAg SI (HBsAg): 20.66; TC50 (2.2.15 cells): 258.69 µg/mL (≈ 487 µM)
